# Measurements: patent US12077503B2, “Substituted cyclic amides and their use as herbicides” (FMC CORPORATION, priority 2015, dated 2024)
# What was measured:
# Assay type in all cases: in vivo
# [1] = system: giant foxtail (Setaria faberi); assay: Test G Post-Emergence Protocol; conditions: Setaria faberi, post-emergence, 312 h; for pest or weed control at 15.625 g/ha: 15.625 g ai/ha, evaluated after 13 days (100=total damage to plant; 0=no damage to plant), read-out: Foxtail, Giant damage rating; for pest or weed control at 62.5 g/ha: 62.5 g ai/ha, read-out: Foxtail, Giant damage rating (100=total damage to plant; 0=no damage to plant); for pest or weed control at 62.5 g/ha / pest or weed control at 250 g/ha: evaluated after 13 days; for pest or weed control at 250 g/ha: 250 g ai/ha, read-out: damage to plant, Foxtail, Giant (100=total damage to plant; 0=no damage to plant)
# Method in brief: (§1)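 Sow in soil; grow 8 d (24/16 °C, 14 h light, 65% humidity); spray 15.625/62.5/250 g/ha in acetone:water 50:50 + 0.5% Tween 20; grow on, water twice daily; score damage 0–100 at 13 d.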
# [2] = system: barnyardgrass (Echinochloa crus-galli); assay: Test G Post-Emergence Protocol; conditions: Echinochloa crus-galli, post-emergence, 312 h; for pest or weed control at 15.625 g/ha: 15.625 g ai/ha, evaluated after 13 days (100=total damage to plant; 0=no damage to plant), read-out: Barnyardgrass damage rating; for pest or weed control at 62.5 g/ha: 62.5 g ai/ha, read-out: Barnyardgrass damage rating (100=total damage to plant; 0=no damage to plant); for pest or weed control at 62.5 g/ha / pest or weed control at 250 g/ha: evaluated after 13 days; for pest or weed control at 250 g/ha: 250 g ai/ha, read-out: damage to plant, Barnyardgrass (100=total damage to plant; 0=no damage to plant)
# Method in brief: as §1
# [3] = system: redroot pigweed (Amaranthus retroflexus); assay: Test G Post-Emergence Protocol; conditions: Amaranthus retroflexus, post-emergence, 312 h; for pest or weed control at 15.625 g/ha: 15.625 g ai/ha, evaluated after 13 days (100=total damage to plant; 0=no damage to plant), read-out: Pigweed, Redroot damage rating; for pest or weed control at 62.5 g/ha: 62.5 g ai/ha, read-out: Pigweed, Redroot damage rating (100=total damage to plant; 0=no damage to plant); for pest or weed control at 62.5 g/ha / pest or weed control at 250 g/ha: evaluated after 13 days; for pest or weed control at 250 g/ha: 250 g ai/ha, read-out: damage to plant, Pigweed, Redroot (100=total damage to plant; 0=no damage to plant)
# Method in brief: as §1
# [4] = system: ivy-leaved morning glory (Ipomoea hederacea); assay: Test G Post-Emergence Protocol; conditions: Ipomoea, post-emergence, 312 h; for pest or weed control at 15.625 g/ha: 15.625 g ai/ha, evaluated after 13 days (100=total damage to plant; 0=no damage to plant), read-out: Morningglory, Ivy-leaved damage rating; for pest or weed control at 62.5 g/ha: 62.5 g ai/ha, read-out: Morningglory, Ivy-leaved damage rating (100=total damage to plant; 0=no damage to plant); for pest or weed control at 62.5 g/ha / pest or weed control at 250 g/ha: evaluated after 13 days; for pest or weed control at 250 g/ha: 250 g ai/ha, read-out: damage to plant, Morningglory, Ivy-leaved (100=total damage to plant; 0=no damage to plant)
# Method in brief: as §1
# [5] = system: velvetleaf (Abutilon theophrasti); assay: Test G Post-Emergence Protocol; conditions: Abutilon theophrasti, post-emergence, 312 h; for pest or weed control at 15.625 g/ha: 15.625 g ai/ha, evaluated after 13 days (100=total damage to plant; 0=no damage to plant), read-out: Velvetleaf damage rating; for pest or weed control at 62.5 g/ha: 62.5 g ai/ha, read-out: Velvetleaf damage rating (100=total damage to plant; 0=no damage to plant); for pest or weed control at 62.5 g/ha / pest or weed control at 250 g/ha: evaluated after 13 days; for pest or weed control at 250 g/ha: 250 g ai/ha, read-out: damage to plant, Velvetleaf (100=total damage to plant; 0=no damage to plant)
# Method in brief: as §1
# corn (Zea mays) [6] = assay: Test G Post-Emergence Protocol; conditions: Zea mays, post-emergence, 312 h; for plant injury at 15.625 g/ha: 15.625 g ai/ha, evaluated after 13 days (100=total damage to plant; 0=no damage to plant), read-out: Corn damage rating; for plant injury at 62.5 g/ha: 62.5 g ai/ha, read-out: Corn damage rating (100=total damage to plant; 0=no damage to plant); for plant injury at 62.5 g/ha / plant injury at 250 g/ha: evaluated after 13 days; for plant injury at 250 g/ha: 250 g ai/ha, read-out: damage to plant, Corn (100=total damage to plant; 0=no damage to plant)
# Method in brief: as §1
# [7] = system: giant foxtail (Setaria faberi); assay: Test G Pre-Emergence Protocol; conditions: Setaria faberi, pre-emergence, 312 h, evaluated after 13 days; for pest or weed control at 15.625 g/ha: 15.625 g ai/ha; for pest or weed control at 15.625 g/ha / pest or weed control at 250 g/ha: read-out: Foxtail, Giant damage rating (100=total damage to plant; 0=no damage to plant); for pest or weed control at 62.5 g/ha: 62.5 g ai/ha, 100=total damage to plant, 0=no damage to plant, read-out: plant damage rating, Foxtail, Giant; for pest or weed control at 250 g/ha: 250 g ai/ha
# Method in brief: (§2)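 Scores are visual damage ratings from 0 (no damage) to 100 (total plant kill), taken 13 days after treatment. Compound was sprayed one day post-sowing at 15.625, 62.5 or 250 g/ha in 50:50 acetone/water with 0.5% Tween 20.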
# [8] = system: barnyardgrass (Echinochloa crus-galli); assay: Test G Pre-Emergence Protocol; conditions: Echinochloa crus-galli, pre-emergence, 312 h, evaluated after 13 days; for pest or weed control at 15.625 g/ha: 15.625 g ai/ha, read-out: Barnyard grass damage rating (100=total damage to plant; 0=no damage to plant); for pest or weed control at 62.5 g/ha: 62.5 g ai/ha, 100=total damage to plant, 0=no damage to plant, read-out: plant damage rating, Barnyardgrass; for pest or weed control at 250 g/ha: 250 g ai/ha, read-out: Barnyardgrass damage rating (100=total damage to plant; 0=no damage to plant)
# Method in brief: as §2
# [9] = system: redroot pigweed (Amaranthus retroflexus); assay: Test G Pre-Emergence Protocol; conditions: Amaranthus retroflexus, pre-emergence, 312 h, evaluated after 13 days; for pest or weed control at 15.625 g/ha: 15.625 g ai/ha; for pest or weed control at 15.625 g/ha / pest or weed control at 250 g/ha: read-out: Pigweed, Redroot damage rating (100=total damage to plant; 0=no damage to plant); for pest or weed control at 62.5 g/ha: 62.5 g ai/ha, 100=total damage to plant, 0=no damage to plant, read-out: plant damage rating, Pigweed, Redroot; for pest or weed control at 250 g/ha: 250 g ai/ha
# Method in brief: as §2
# [10] = system: ivy-leaved morning glory (Ipomoea hederacea); assay: Test G Pre-Emergence Protocol; conditions: Ipomoea, pre-emergence, 312 h, evaluated after 13 days; for pest or weed control at 15.625 g/ha: 15.625 g ai/ha, read-out: Morning-glory, Ivy-leaved damage rating (100=total damage to plant; 0=no damage to plant); for pest or weed control at 62.5 g/ha: 62.5 g ai/ha, 100=total damage to plant, 0=no damage to plant, read-out: plant damage rating, Morningglory, Ivy-leaved; for pest or weed control at 250 g/ha: 250 g ai/ha, read-out: Morningglory, Ivy-leaved damage rating (100=total damage to plant; 0=no damage to plant)
# Method in brief: as §2
# [11] = system: velvetleaf (Abutilon theophrasti); assay: Test G Pre-Emergence Protocol; conditions: Abutilon theophrasti, pre-emergence, 312 h, evaluated after 13 days; for pest or weed control at 15.625 g/ha: 15.625 g ai/ha; for pest or weed control at 15.625 g/ha / pest or weed control at 250 g/ha: read-out: Velvetleaf damage rating (100=total damage to plant; 0=no damage to plant); for pest or weed control at 62.5 g/ha: 62.5 g ai/ha, 100=total damage to plant, 0=no damage to plant, read-out: plant damage rating, Velvetleaf; for pest or weed control at 250 g/ha: 250 g ai/ha
# Method in brief: as §2
# corn (Zea mays) [12] = assay: Test G Pre-Emergence Protocol; conditions: Zea mays, pre-emergence, 312 h, evaluated after 13 days; for plant injury at 15.625 g/ha: 15.625 g ai/ha; for plant injury at 15.625 g/ha / plant injury at 250 g/ha: read-out: Corn damage rating (100=total damage to plant; 0=no damage to plant); for plant injury at 62.5 g/ha: 62.5 g ai/ha, 100=total damage to plant, 0=no damage to plant, read-out: plant damage rating, Corn; for plant injury at 250 g/ha: 250 g ai/ha
# Method in brief: as §2
SMILES,pest or weed control at 15.625 g/ha [1],pest or weed control at 62.5 g/ha [1],pest or weed control at 250 g/ha [1],pest or weed control at 15.625 g/ha [2],pest or weed control at 62.5 g/ha [2],pest or weed control at 250 g/ha [2],pest or weed control at 15.625 g/ha [3],pest or weed control at 62.5 g/ha [3],pest or weed control at 250 g/ha [3],pest or weed control at 15.625 g/ha [4],pest or weed control at 62.5 g/ha [4],pest or weed control at 250 g/ha [4],pest or weed control at 15.625 g/ha [5],pest or weed control at 62.5 g/ha [5],pest or weed control at 250 g/ha [5],plant injury at 15.625 g/ha (corn (Zea mays) [6]),plant injury at 62.5 g/ha (corn (Zea mays) [6]),plant injury at 250 g/ha (corn (Zea mays) [6]),pest or weed control at 15.625 g/ha [7],pest or weed control at 62.5 g/ha [7],further results
CN1C[C@H](c2ccc(C(F)(F)F)cc2)[C@@H](C(=O)Nc2cccc3nsnc23)C1=O (racemic) [Compound 1430],0%,10%,50%,0%,0%,30%,0%,0%,20%,0%,0%,0%,0%,0%,0%,0%,0%,0%,10%,50%,pest or weed control at 250 g/ha [7]: 80%; pest or weed control at 15.625 g/ha [8]: 0%; pest or weed control at 62.5 g/ha [8]: 20%; pest or weed control at 250 g/ha [8]: 60%; pest or weed control at 15.625 g/ha [9]: 0%; pest or weed control at 62.5 g/ha [9]: 0%; pest or weed control at 250 g/ha [9]: 0%; pest or weed control at 15.625 g/ha [10]: 0%; pest or weed control at 62.5 g/ha [10]: 0%; pest or weed control at 250 g/ha [10]: 0%; pest or weed control at 15.625 g/ha [11]: 0%; pest or weed control at 62.5 g/ha [11]: 0%; pest or weed control at 250 g/ha [11]: 0%; plant injury at 15.625 g/ha (corn (Zea mays) [12]): 0%; plant injury at 62.5 g/ha (corn (Zea mays) [12]): 0%; plant injury at 250 g/ha (corn (Zea mays) [12]): 0%
CN1C[C@H](c2ccc(C(F)(F)F)cc2)[C@@H](C(=O)Nc2ncccc2C#N)C1=O (racemic) [Compound 1433],0%,0%,0%,0%,0%,0%,0%,0%,0%,0%,0%,0%,0%,0%,0%,0%,0%,0%,0%,0%,pest or weed control at 250 g/ha [7]: 0%; pest or weed control at 15.625 g/ha [8]: 0%; pest or weed control at 62.5 g/ha [8]: 0%; pest or weed control at 250 g/ha [8]: 0%; pest or weed control at 15.625 g/ha [9]: 0%; pest or weed control at 62.5 g/ha [9]: 0%; pest or weed control at 250 g/ha [9]: 0%; pest or weed control at 15.625 g/ha [10]: 0%; pest or weed control at 62.5 g/ha [10]: 0%; pest or weed control at 250 g/ha [10]: 0%; pest or weed control at 15.625 g/ha [11]: 0%; pest or weed control at 62.5 g/ha [11]: 0%; pest or weed control at 250 g/ha [11]: 0%; plant injury at 15.625 g/ha (corn (Zea mays) [12]): 0%; plant injury at 62.5 g/ha (corn (Zea mays) [12]): 0%; plant injury at 250 g/ha (corn (Zea mays) [12]): 0%
C=CCc1c(Cl)cccc1NC(=O)[C@H]1C(=O)N(C)C[C@@H]1c1ccc(C(F)(F)F)cc1 (racemic) [Compound 1440],0%,20%,60%,0%,0%,10%,0%,10%,20%,0%,0%,10%,0%,0%,0%,0%,10%,20%,0%,50%,pest or weed control at 250 g/ha [7]: 80%; pest or weed control at 15.625 g/ha [8]: 0%; pest or weed control at 62.5 g/ha [8]: 10%; pest or weed control at 250 g/ha [8]: 40%; pest or weed control at 15.625 g/ha [9]: 0%; pest or weed control at 62.5 g/ha [9]: 0%; pest or weed control at 250 g/ha [9]: 0%; pest or weed control at 15.625 g/ha [10]: 0%; pest or weed control at 62.5 g/ha [10]: 0%; pest or weed control at 250 g/ha [10]: 0%; pest or weed control at 15.625 g/ha [11]: 0%; pest or weed control at 62.5 g/ha [11]: 0%; pest or weed control at 250 g/ha [11]: 0%; plant injury at 15.625 g/ha (corn (Zea mays) [12]): 0%; plant injury at 62.5 g/ha (corn (Zea mays) [12]): 0%; plant injury at 250 g/ha (corn (Zea mays) [12]): 0%
